# Test results as given in ChEMBL document CHEMBL4196106, “From Naproxen Repurposing to Naproxen Analogues and Their Antiviral Activity against Influenza A Virus” (J Med Chem, 2018).
# Key:
# [1] = Selectivity index, ratio of CC50 for MDCK cells to IC50 for oseltamivir-resistant Influenza A virus (A/Puerto Rico/8/1934(H1N1)) infected in MDCK cells at MOI of 10^-3 after 18 hrs; type: toxicity, cell-based; conditions: dog, read-out: Ratio CC50/IC50
# [2] = test system: Influenza A virus; assay: Antiviral activity against oseltamivir-resistant Influenza A virus (A/Puerto Rico/8/1934(H1N1)) infected in MDCK cells at MOI of 10^-3 assessed as decrease in viral load after 18 hrs by immunofluorescence analysis; type: functional, organism-based
Compound,selectivity ratio at 18 h [1],IC50 [2] [µM]
COc1ccc2cc(-c3c(C(=O)[O-])ccc(Oc4ccc(N)cc4)c3C(=O)[O-])ccc2c1.[Na+].[Na+],12000,1
COc1ccc2cc(-c3c(C(=O)O)cc(Oc4ccc(N)cc4)cc3C(=O)O)ccc2c1,1620,8
COc1ccc2cc(-c3c(C(=O)[O-])cccc3C(=O)[O-])ccc2c1.[Na+].[Na+],1480,8.8
